Key:
Test in all cases: relative viability (nuclei count vs DMSO), 5 days (fraction); higher = more cells survive
[1] = test system: HCC-827
Method in brief: (§1)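 Relative viability was taken as the ratio of nuclei in treated wells to nuclei in vehicle wells. Lung cancer cell lines in 1536-well plates received compounds by pin tool one day after seeding, either one drug alone or a fixed anchor-drug dose plus five library-drug doses (not always all listed) in √10 steps. Nuclei were counted on 4× images after 5 days of treatment, and values are medians of duplicate plates.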

[2] = test system: LCLC-103H
Method in brief: as §1

[3] = test system: H3255
Method in brief: as §1

[4] = test system: NCI-H2405
Method in brief: as §1

[5] = test system: NCI-H2087
Method in brief: as §1

[6] = test system: ChaGo-K-1
Method in brief: as §1

[7] = test system: NCI-H520
Method in brief: as §1

[8] = test system: LU99A
Method in brief: as §1

[9] = test system: NCI-H1563
Method in brief: as §1

[10] = test system: COR-L23
Method in brief: as §1

[11] = test system: NCI-H838
Method in brief: as §1

[12] = test system: NCI-H2023
Method in brief: as §1

[13] = test system: EPLC-272H
Method in brief: as §1

[14] = test system: NCI-H2085
Method in brief: as §1

[15] = test system: NCI-H1651
Method in brief: as §1

[16] = test system: HCC-44
Method in brief: as §1

[17] = test system: NCI-H650
Method in brief: as §1

[18] = test system: EMC-BAC-2
Method in brief: as §1

Question: Which results are given for O=c1cc(N2CCOCC2)oc2c(-c3cccc4c3sc3ccccc34)cccc12 + CC(C)C[C@H](NC(=O)[C@H](Cc1ccccc1)NC(=O)c1cnccn1)B(O)O [Bortezomib] (partner 0.002 µM)?
Answer: relative viability ([1]; first compound 0.01 µM): 1.02; relative viability ([1]; first compound 0.03162 µM): 0.976; relative viability ([1]; first compound 0.1 µM): 1.04; relative viability ([1]; first compound 0.3162 µM): 1.06; relative viability ([1]; first compound 1 µM): 1.02; relative viability ([2]; first compound 0.01 µM): 1.16; relative viability ([2]; first compound 0.03162 µM): 1.04; relative viability ([2]; first compound 0.1 µM): 0.954; relative viability ([2]; first compound 0.3162 µM): 1.04; relative viability ([2]; first compound 1 µM): 0.877; relative viability ([3]; first compound 0.01 µM): 0.696; relative viability ([3]; first compound 0.03162 µM): 0.806; relative viability ([3]; first compound 0.1 µM): 0.761; relative viability ([3]; first compound 0.3162 µM): 0.854; relative viability ([3]; first compound 1 µM): 0.604; relative viability ([4]; first compound 0.01 µM): 1.01; relative viability ([4]; first compound 0.03162 µM): 0.941; relative viability ([4]; first compound 0.1 µM): 1.03; relative viability ([4]; first compound 0.3162 µM): 0.987; relative viability ([4]; first compound 1 µM): 0.988; relative viability ([5]; first compound 0.01 µM): 0.777; relative viability ([5]; first compound 0.03162 µM): 0.766; relative viability ([5]; first compound 0.1 µM): 0.855; relative viability ([5]; first compound 0.3162 µM): 0.953; relative viability ([5]; first compound 1 µM): 1.06; relative viability ([6]; first compound 0.01 µM): 0.64; relative viability ([6]; first compound 0.03162 µM): 0.915; relative viability ([6]; first compound 0.1 µM): 0.897; relative viability ([6]; first compound 0.3162 µM): 1.04; relative viability ([6]; first compound 1 µM): 0.977; relative viability ([7]; first compound 0.01 µM): 0.66; relative viability ([7]; first compound 0.03162 µM): 0.446; relative viability ([7]; first compound 0.1 µM): 0.472; relative viability ([7]; first compound 0.3162 µM): 0.64; relative viability ([7]; first compound 1 µM): 0.752; relative viability ([8]; first compound 0.01 µM): 1.25; relative viability ([8]; first compound 0.03162 µM): 1.11; relative viability ([8]; first compound 0.1 µM): 1.19; relative viability ([8]; first compound 0.3162 µM): 1.03; relative viability ([8]; first compound 1 µM): 1.29; relative viability ([9]; first compound 0.01 µM): 1; relative viability ([9]; first compound 0.03162 µM): 0.809; relative viability ([9]; first compound 0.1 µM): 0.9; relative viability ([9]; first compound 0.3162 µM): 0.734; relative viability ([9]; first compound 1 µM): 0.762; relative viability ([10]; first compound 0.01 µM): 1.03; relative viability ([10]; first compound 0.03162 µM): 1; relative viability ([10]; first compound 0.1 µM): 1.09; relative viability ([10]; first compound 0.3162 µM): 0.904; relative viability ([10]; first compound 1 µM): 1.03; relative viability ([11]; first compound 0.01 µM): 0.779; relative viability ([11]; first compound 0.03162 µM): 0.673; relative viability ([11]; first compound 0.1 µM): 0.805; relative viability ([11]; first compound 0.3162 µM): 0.813; relative viability ([11]; first compound 1 µM): 0.908; relative viability ([12]; first compound 0.01 µM): 1.04; relative viability ([12]; first compound 0.03162 µM): 1.02; relative viability ([12]; first compound 0.1 µM): 1.05; relative viability ([12]; first compound 0.3162 µM): 0.936; relative viability ([12]; first compound 1 µM): 0.907; relative viability ([13]; first compound 0.01 µM): 0.903; relative viability ([13]; first compound 0.03162 µM): 0.916; relative viability ([13]; first compound 0.3162 µM): 0.854; relative viability ([13]; first compound 1 µM): 0.935; relative viability ([14]; first compound 0.01 µM): 0.995; relative viability ([14]; first compound 0.03162 µM): 1.01; relative viability ([14]; first compound 0.1 µM): 1.03; relative viability ([14]; first compound 0.3162 µM): 1.06; relative viability ([14]; first compound 1 µM): 0.967; relative viability ([15]; first compound 0.01 µM): 0.897; relative viability ([15]; first compound 0.03162 µM): 0.991; relative viability ([15]; first compound 0.1 µM): 0.952; relative viability ([15]; first compound 0.3162 µM): 0.939; relative viability ([15]; first compound 1 µM): 0.871; relative viability ([16]; first compound 0.01 µM): 0.889; relative viability ([16]; first compound 0.03162 µM): 0.875; relative viability ([16]; first compound 0.1 µM): 0.906; relative viability ([16]; first compound 0.3162 µM): 0.881; relative viability ([16]; first compound 1 µM): 0.896; relative viability ([17]; first compound 0.01 µM): 0.845; relative viability ([17]; first compound 0.03162 µM): 0.837; relative viability ([17]; first compound 0.3162 µM): 1.12; relative viability ([17]; first compound 1 µM): 0.632; relative viability ([18]; first compound 0.01 µM): 1.06; relative viability ([18]; first compound 0.03162 µM): 1.09; relative viability ([18]; first compound 0.1 µM): 1.15; relative viability ([18]; first compound 0.3162 µM): 1.11; relative viability ([18]; first compound 1 µM): 1.02

— the supplement of paper PMC10307832
